Test results: patent US4876255A, “Substituted 1,4-dihydropyridines for control of circulation and thromboses” (Bayer Aktiengesellschaft, priority 1987, dated 1989)
Where two headings read alike, the source gives them in different places.

Tests used:
[1] = tested on: isolated perfused guineapig hearts; experiment: Coronary and circulatory activity on isolated perfused guineapig hearts; settings: Cavia porcellus, 10^-6 g/ml, difference to starting pressure set as 100%
Text: The coronary and circulatory activities were discovered using isolated perfused guineapig hearts.
For this, the hearts of 250 to 350 g guineapigs are used. The animals are killed by a blow to the head, the thorax is opened, and a metal cannula is tied into the exposed aorta. The heart is removed from the thorax with the lungs and is connected to the perfusion apparatus through an aortic cannula, with continuous perfusion. The lungs are removed at the lung roots. A Krebs Henseleit solution (1) (118.5 mmol/l of NaCl, 4.75 mmol/l of KCl, 1.19 mmol/l of KH2 PO4, 1.19 mmol/l of MgSO4, 25 mmol/l of NaHCO3, 0.013 mmol/l of Na2 EDTA), which contains 1.2 mmol/l of CaCl2, is used as the perfusion medium. 10 mmol/l of glucose are added as an energy-liberating substrate. Before the perfusion the solution is filtered until free of particles. The solution is gassed with Carbogen (95% O2, 5% CO2) in order to maintain a pH value of 7.4. The hearts are perfused at a constant flow rate (10 ml/min) at 32° C. using a peristaltic pump.
In order to measure the cardiac function, a latex balloon filled with liquid and connected through a column of liquid to a pressure gauge is introduced into the left ventricle through the left auricle, and the isovolumetric contractions are recorded on a high-speed recorder (Opie, L., J. Physiol. 180 (1965) 529-541). The perfusion pressure is recorded using a pressure gauge which is connected to the perfusion system upstream of the heart. Under these conditions a decrease in the perfusion pressure indicates coronary dilation, and a rise or fall in the amplitude of contraction of the left ventricle indicates an increase or decrease in cardiac contractility. The compounds according to the invention are infused into the perfusion medium at suitable dilutions just upstream of the isolated heart.
The following values show, as an example, the effect of the compounds according to the invention on isolated perfused guineapig hearts, expressed as the percentage difference to the starting pressure, set as equivalent to 100%.

TXA2 synthesis = experiment: Inhibition of TXA2 synthesis (3H-arachidonic acid metabolism in washed human thrombocytes, TLC); assay type: cell-based; settings: 10 min, 2 min pre-incubation, 10 min with 3H-arachidonic acid, 37° C., read-out: Minimal effective concentration for inhibition (MEC) of TXA2 synthesis
Text: Arachidonic acid metabolism in human thrombocytes was investigated using tritium-labelled arachidonic acid. Thrombocytes metabolize arachidonic acid to TXA2 and HHT via the cyclooxygenase pathway and to 12-HETE via the lipoxygenase pathway, which can be separated by thin layer chromatography [cf Bailey, J.M. et al., Prostaglandins 13, 479-492, (1977)], Inhibitors of the individual enzymatic reactions alter the chromatographic distribution pattern in a characteristic manner.
Washed human thrombocytes from healthy donors who had taken no drug for 14 days were incubated for 2 minutes at 37° C. with the test substance and then incubated for a further 10 minutes at 37° C. with ^3 H-arachidonic acid. The suspension was acidified and extracted with ethyl acetate. The ethyl acetate was evaporated off under a nitrogen atmosphere and the residue was taken up in methanol/trichloromethane (1:1) and applied to TLC plastic sheets. Separation was performed using a trichloromethane/methanol/glacial acetic acid/water (80:8:1:0.8) mobile solvent mixture. The distribution of radioactivity was measured by means of a radioscanner (Table 1).

PGI2 synthesis = experiment: Prostacyclin stimulation in whole blood (collagen-induced, 6-keto-PGF1α radioimmunologically); assay type: cell-based; settings: read-out: Stimulation of PGI2 synthesis (MEC)
Procedure: The 1,4-dihydrophyridines to be used according to the invention additionally stimulate the synthesis of PGI2. PGI2 has vasodilating and thrombocyte aggregation inhibiting activity, in contrast with the vasoconstrictor and thrombocyte aggregation […] action of thromboxan.
In whole blood, collagen induces the formation of PGI2. The endoperoxides formed in the thrombocytes are probably converted into PGI2 by leucocytes. The stable end product of PGI2 conversion, 6-keto-PGF1 α, is determined radioimmunologically (Table 2).

[2] = decrease indicates coronary dilation, read-out: % alteration in perfusion pressure
[3] = read-out: % alteration in contractility

CCOC(=O)C1=C(C)NC(C)=C(C(=O)OCc2ccc(C3=NNC(=O)CC3)cc2)C1c1cccc([N+](=O)[O-])c1 (stereo not shown) [Example 7, Ethyl 4-(6-oxo-1,4,5,6-tetrahydropyridazin-3-yl)benzyl 1,4-dihydro-2,6-dimethyl-4-(3-nitrophenyl)-pyridine-3,5-dicarboxylate]
percent change at 1 µg/mL [1, 2]: 0% | inhibition at 1 µg/mL [1, 3]: 60%

CC1=C(C(=O)OCCCc2cccnc2)C(CCc2cccnc2)C(C(=O)OCc2ccc(C3=NNC(=O)CC3)cc2)=C(C)N1 (stereo not shown) [Example 11]
minimal effective concentration (TXA2 synthesis): 0.1 µg/mL | inhibition at 1 µg/mL [1, 2]: 36% | inhibition at 1 µg/mL [1, 3]: 23%

COC(=O)C1=C(C)NC(C)=C(C(=O)OCc2ccc(C3=NNC(=O)CC3)cc2)C1c1ccccc1Cl (stereo not shown) [Example 13]
percent change at 1 µg/mL [1, 2]: 0% | inhibition at 1 µg/mL [1, 3]: 78%

COC(=O)C1=C(C)NC(C)=C(C(=O)OCc2ccc(C3=NNC(=O)CC3)cc2)C1CCc1cccnc1 (stereo not shown) [Example 16]
minimal effective concentration (TXA2 synthesis): 0.1 µg/mL

CC(=O)C1=C(C)NC(C)=C(C(=O)OCc2ccc(C3=NNC(=O)CC3)cc2)C1CCc1cccnc1 (stereo not shown) [Example 18]
minimal effective concentration (TXA2 synthesis): 0.1 µg/mL

CC1=C(C#N)C(CCc2cccnc2)C(C(=O)OCc2ccc(C3=NNC(=O)CC3)cc2)=C(C)N1 (stereo not shown) [Example 19]
minimal effective concentration (TXA2 synthesis): 0.1 µg/mL

COC(=O)C1=C(C)NC(C)=C(C(=O)OCCc2ccc(C3=NNC(=O)CC3)cc2)C1CCc1cccnc1 (stereo not shown) [Example 21]
minimal effective concentration (PGI2 synthesis): < 3 µg/mL

CC1=C(C(=O)OCCCc2cccnc2)C(CCc2cccnc2)C(C(=O)OCCc2ccc(C3=NNC(=O)CC3)cc2)=C(C)N1 (stereo not shown) [Example 22]
minimal effective concentration (TXA2 synthesis): < 0.1 µg/mL | minimal effective concentration (PGI2 synthesis): < 1 µg/mL
